Assay results reported in paper PMC11934087, “Rational Design of Stapled Covalent Peptide Modifiers of Oncoprotein E6 from Human Papillomavirus” (ACS Chemical Biology, 2025).
Where a SMILES comes first, the peptide text is derived from it. Bridges are numbered along the chain shown (N, C = ends). [ ]: non-standard residue; d: D form. The star is where a group is joined. 5FAM = O=C1OC2(c3ccc(O)cc3Oc3cc(O)ccc32)c2ccc(C(=O)*)cc21; S5 = C=CCCC[C@](C)(N)C(=O)O; βAla = NCCC(=O)O

Experiments:
[1] = Circular dichroism spectroscopy, percent helicity; format: physicochemical; conditions: 50 μM peptide, 10 mM phosphate buffer pH 7.2, 0.5% DMSO, 20 °C
Experimental: To determine the secondary structure of peptides 1–11, CD was measured in an aqueous solution. […] The molar ellipticity ([θ]) at 222 nm was used to estimate the percent helicity of peptides in aqueous solutions and enable direct comparison of the helical content of peptides 1–11 (Figure 5C).[51],[52]
CD measurements were acquired on an Olis DSM17 CD spectrophotometer. Cells with a path length of 2 mm were used. Peptide solutions at 50 μM were prepared in 10 mM phosphate buffer (500 μL; pH = 7.2) containing 0.5% of DMSO, and exact concentrations were determined using fluorescein absorbance at 494 nm and a molar extinction coefficient of 82,000 cm^–1 M^–1.[59] Blank solutions of buffer without peptide were prepared for background subtraction. Scans were performed at 20 °C from 200 to 260 nm with increments of 1 nm, bandwidth of 2 nm, and a 5 s integration time. […] Helical content for peptides was calculated using a previously described method[52] that assumes that the peptide population only exists in two states, helical and random coil, and that the ellipticity contribution from the random coil population is negligible at 222 nm. […] This was calculated via the equation [θobs]222 = 43,000(1 – [x/n]), where x is the factor accounting for end effects, for which 2.5 was used, and n is the number of residues.[52]

[2] = biological target: T1, GST-E6 (GST-tagged HPV16 E6 protein) (Human papillomavirus type 16, UniProt P03126); assay: Noncompetitive fluorescence polarization (FP) binding assay; parameters: species or system Human Papillomavirus (HPV-16)
T1 construct: host or cells: E. coli BL21
T1 sequence (P03126 whole entry): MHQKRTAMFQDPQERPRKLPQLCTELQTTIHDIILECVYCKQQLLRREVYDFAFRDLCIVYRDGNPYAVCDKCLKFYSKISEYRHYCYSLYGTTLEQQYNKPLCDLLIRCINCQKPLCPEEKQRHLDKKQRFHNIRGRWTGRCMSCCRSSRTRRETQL
Experimental: An N-terminal carboxyfluorescein was included for FP analysis of binding affinity for both the natural backbone and the stapled peptides.
For noncompetitive FP experiments, varying concentrations of GST-E6 protein (38 μM; 10 point 2-fold serial dilution) were incubated with 30 nM fluorescently labeled peptides in buffer (10 μL total volume; 50 mM Tris, 200 mM NaCl, 1 mM DTT, 0.1% [v/v] Trition X-100) in black 384-well plates. For competitive FP experiments, 100 nM GST-E6 was incubated with 30 nM fluorescently labeled noncovalent peptide and varying concentrations (20 μM; 3-fold serial dilution) of covalent peptide in buffer (20 μL) with a final DMSO content of 0.5% [v/v]. Negative control (polarization reference; 30 nM fluorescent peptide, no protein) and blank reference (buffer alone) were included in triplicate for G-factor calibration. Sample plates were centrifuged (1 min, 500g) and incubated for 30 min at RT. Following incubation, FP at equilibrium was measured on a Tecan M1000 microplate reader (ex = 470 nm, em = 525; gain optimized, 200 flashes, 300 ms settle time, G-factor reference value 30 mP). Measured polarizations were fitted to a sigmoidal dose–response curve using GraphPad Prism software to generate KD values.

[3] = in vitro; conditions: bovine α-chymotrypsin (50 nM), pH 7.5
Experimental: (§1) Chymotrypsin was chosen due to its substrate selectivity for peptides containing hydrophobic side chains, including leucine, making the LxxLL motif a well-suited substrate for proteolytic cleavage by this protease.[54]
(§2) For each time point, a 50 μL aliquot was removed from the reaction mixture and quenched with 40 μL of 0.5% [v/v] trifluoroacetic acid in acetonitrile. Quenched samples were subsequently analyzed by analytical reverse-phase HPLC, and the remaining undigested peptide was quantified by integration of AUC. A plot of percent peptide remaining vs time was fit to a one-phase exponential decay to calculate half-life using GraphPad Prism software.

[4] = biological target: bovine α-chymotrypsin (Bos taurus, UniProt P00766); assay: in vitro; conditions: 50 μM peptide, 50 nM bovine α-chymotrypsin, pH 7.5, room temp, 4 h; HPLC
Experimental: as §1, §2

Structure (SMILES) | Percent helicity from molar ellipticity at 222 nm (CD) [1] [%] | Kd [2] [nM] | half-life at 50 μM [3] [min] | degradation by chymotrypsin within 4 h [4] | EC50 [2] [nM]
CC(C)C[C@H](NC(=O)[C@H](CC(C)C)NC(=O)[C@H](CCC(=O)O)NC(=O)[C@]1(C)CCCC=CCCC[C@](C)(NC(=O)[C@H](C)NC(=O)[C@H](C)NC(=O)[C@H](C)NC(=O)CCNC(=O)c2ccc3c(c2)C(=O)OC32c3ccc(O)cc3Oc3cc(O)ccc32)C(=O)N[C@@H](CC(C)C)C(=O)N[C@@H]([C@@H](C)O)C(=O)N[C@@H](CC(C)C)C(=O)N1)C(=O)NCC(N)=O [compound 6] ({5FAM-βAla}-AAA[S5]LTL[S5]ELLG-NH2; staple 4-8) | 22 | ≥ 38000 |  |  | 
CC(C)C[C@H](NC(=O)[C@H](CC(C)C)NC(=O)[C@H](CCC(=O)O)NC(=O)[C@H](CCC(N)=O)NC(=O)[C@H](CC(C)C)NC(=O)[C@@H](NC(=O)[C@H](CC(C)C)NC(=O)[C@H](CCC(=O)O)NC(=O)[C@H](C)NC(=O)[C@H](C)NC(=O)[C@H](C)NC(=O)CCNC(=O)c1ccc2c(c1)C(=O)OC21c2ccc(O)cc2Oc2cc(O)ccc21)[C@@H](C)O)C(=O)NCC(N)=O [compound 1] ({5FAM-βAla}-AAAELTLQELLG-NH2) |  | 2590 | 47 | complete degradation | 2590
